From ChEMBL document CHEMBL1127988, “Differential binding and dopamine uptake activity of cocaine analogues modified at nitrogen” (Bioorg Med Chem Lett, 1994)

Tests used:
[1] = biological target: Sodium-dependent dopamine transporter (Rattus norvegicus, UniProt P23977); assay: Binding affinity to inhibit [3H]mazindol binding in rat corpus striatum P2 synaptosomes; format: subcellular
[2] = biological target: Sodium-dependent dopamine transporter (Rattus norvegicus) (UniProt P23977); assay: Maximum percent inhibition of [3H]mazindol binding in rat corpus striatum P2 synaptosome at 1000 uM; format: tissue-based
Sequence of Sodium-dependent dopamine transporter (Rattus norvegicus) (P23977 whole entry): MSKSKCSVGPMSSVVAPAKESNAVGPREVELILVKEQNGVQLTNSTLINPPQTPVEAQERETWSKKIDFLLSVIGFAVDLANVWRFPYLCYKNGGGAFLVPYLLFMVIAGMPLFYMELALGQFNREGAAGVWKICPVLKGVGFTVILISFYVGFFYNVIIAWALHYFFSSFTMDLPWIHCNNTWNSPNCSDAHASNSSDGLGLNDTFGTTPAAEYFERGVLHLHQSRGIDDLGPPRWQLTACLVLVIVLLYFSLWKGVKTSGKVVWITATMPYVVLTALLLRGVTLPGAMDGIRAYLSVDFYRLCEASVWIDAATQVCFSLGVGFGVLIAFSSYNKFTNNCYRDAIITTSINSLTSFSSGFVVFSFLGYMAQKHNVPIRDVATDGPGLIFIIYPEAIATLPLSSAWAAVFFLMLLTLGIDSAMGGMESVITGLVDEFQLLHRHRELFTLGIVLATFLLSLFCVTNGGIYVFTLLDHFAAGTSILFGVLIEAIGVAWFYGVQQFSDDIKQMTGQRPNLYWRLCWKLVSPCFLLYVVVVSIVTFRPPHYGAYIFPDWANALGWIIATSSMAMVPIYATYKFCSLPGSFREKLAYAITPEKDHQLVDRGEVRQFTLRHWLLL

Rattus norvegicus [3] = species: Rattus norvegicus; assay: Inhibitory activity towards [3H]dopamine uptake in rat corpus striatum P2 synaptosomes; format: functional
Rattus norvegicus [4] = species: Rattus norvegicus; assay: Maximum percent inhibition of dopamine uptake in rat corpus striatum P2 synaptosome at 1000 uM; format: functional
[5] = biological target: Sodium-dependent dopamine transporter (Rattus norvegicus) (UniProt P23977); conditions: Corpus striatum; 1111 uM
Description: Maximum percent inhibition of [3H]mazindol binding in rat corpus striatum P2 synaptosome at 1111 uM

Sequence of Sodium-dependent dopamine transporter (P23977 whole entry): as above

| SMILES | Ki [1] [µM] | inhibition [2] [%] | Ki (Rattus norvegicus [3]) [µM] | inhibition (Rattus norvegicus [4]) [%] | inhibition [5] [%] |
| --- | --- | --- | --- | --- | --- |
| COC(=O)C1C(OC(=O)c2ccccc2)CC2CCC1N2NC(C)=O (centres undefined) | > 1000 | 42 | > 1000 | 41 | – |
| O=C(OC1CC2CCC3C1C(=O)NN23)c1ccccc1 (centres undefined) | 44.9 | – | 115 | – | 83 |
| COC(=O)C1C(OC(=O)c2ccccc2)CC2CCC1N2N=O (centres undefined) | 99.5 | 82 | 232 | 77 | – |
| COC(=O)C1C(OC(=O)c2ccccc2)CC2CCC1N2CCO (centres undefined) | 0.7 | – | 1.6 | – | – |
| COC(=O)CN1C2CCC1C(C(=O)OC)C(OC(=O)c1ccccc1)C2 (centres undefined) | 0.48 | – | 1.6 | – | – |
| COC(=O)C1C(OC(=O)c2ccccc2)CC2CCC1N2[N+](=O)[O-] (centres undefined) | 7.5 | – | 21.2 | – | – |
| COC(=O)C1C(OC(=O)c2ccccc2)CC2CCC1N2CC(=O)O (centres undefined) | 0.38 | – | 2.1 | – | – |
